Results: patent US12496332B2 (priority 2019, dated 2025)

What was measured:
[1] = system: A549 cells infected with influenza A virus; assay type: cell-based, human; details: for decrease of the SOD1 protein during viral infection: A549 cells treated in vitro with inhibitor of autophagy or endoplasmic reticulum stress
influenza virus [2] = system: influenza virus; parameters: species or system mice (C57BL/6N or BALB/c); details: mouse, in vivo
influenza virus [3] = assay type: in vivo, mice

Molecule: Cn1cnc(N)c2ncnc1-2 [3-MA, 3-methyladenine]
- LC3 conversion [1]: decreased
- amount of SOD1 protein [1]: increase
- expression of viral protein PB1 [1]: decreased expression
- decrease of the SOD1 protein during viral infection [1]: reduced significantly

Molecule: CCN(CC)CCCC(C)Nc1ccnc2cc(Cl)ccc12 (stereo not drawn) [chloroquine]
- amount of SOD1 protein [1]: more distinct than that of 3-MA
- decrease of the SOD1 protein during viral infection [1]: reduced significantly

Molecule: SOD1: superoxide dismutase 1, ROS scavenger; human SOD1 gene expressed in bacteria from pET-SOD1
- amount of ROS in the bronchoalveolar lavage fluid (influenza virus [2]): decreased
- amount of SOD1 in lung tissue (influenza virus [2]): recovered to a level close to that before the infection
- body weight decrease (influenza virus [3]; mouse, in vivo): slightly inhibited

Molecule: O=C(O)CCCc1ccccc1 [4-PBA, 4-phenylbutyrate]
- decrease of the SOD1 protein during viral infection [1]: reduced significantly
- production of ROS compared to non-administration group (influenza virus [2]): decreased significantly

Molecule: CC(=O)N[C@@H](CS)C(=O)O [NAC, N-acetylcysteine]
- body weight (survivability) (influenza virus [3]; […], SOD1 50 units/mouse, NAC 1 mg/mouse, 4-PBA 2.5 mg/mouse, catalase 50 units/mouse): significant difference in body weight
